Patent US20240376129A1, “METALLODRUG THERAPEUTIC COMPOUNDS AND PRODRUGS OF METALLODRUG THERAPEUTIC COMPOUNDS” (Dublin City University, priority 2021, published 2024)

What was measured:
[1] = system: supercoiled pUC19 DNA; assay: DNA condensation of supercoiled pUC19 by gel electrophoresis; format: biochemical; conditions: for DNA condensation activity: supercoiled pUC19, at 100 μM; for DNA condensation / aggregation effect: supercoiled pUC19, tested at 100 and 500 μM, 37° C., 90 min
Protocol: Preparation of solutions. Tri-Click samples were initially prepared in DMF and further diluted in HEPES buffer (80 mM). Metal complexes of the Tri-Click series were prepared in-situ by co-incubating with copper(II) nitrate trihydrate, manganese (II) chloride tetrahydrate or zinc(II) acetate dihydrate for 30 min at 37° C. prior to DNA addition.
DNA nuclease and condensation studies. Reactions were carried out in 80 mM HEPES (pH 7.4) unless otherwise stated and followed the general procedure: a total volume of 20 μL with 25 mM NaCl, 400 ng pUC19 at varying concentrations of test compounds (0.25-500 μM) were incubated at 37° C. for either 90 min, 6 h, 12 h or 24 h. Reactions were quenched by adding 6× loading buffer (Fermentas) containing 10 mM Tris-HCl, 0.03% bromophenol blue, 0.03% xylene cyanole FF, 60% glycerol, 60 mM EDTA and samples were loaded onto an agarose gel (1.2%) containing 4 μL EtBr. Electrophoresis was completed at 70 V for 1 h in 1×TAE buffer. DNA studies conducted in the presence of reductant were supplemented with 1 mM Na-L-ascorbate and incubated at 37° C. for 30 min. Electrophoresis was carried out at 70 V for 90 minutes in 1×TAE buffer and photographed using a UV transilluminator.
The DNA recognition properties of the TC series, along with the control compounds, were probed using electrophoresis experiments with supercoiled pUC19 DNA. TC1 was examined across a wide concentration range and found to condense DNA at high concentrations between 250 and 500 μM (FIG. 2a, lanes 11-13).

[2] = system: calf-thymus DNA (ctDNA); assay: Competitive ethidium bromide displacement assay, calf-thymus DNA; format: binding
Protocol: (§1) Competitive ethidium bromide displacement assay. The DNA binding affinity of the tripodal series was determined over a 2 h time period using calf-thymus DNA and synthetic alternating co-polymers poly[d(A-T)2)] and poly[d(G-C)2] by ethidium bromide fluorescence quenching in a similar manner to the high throughput method previously reported by Kellett et al. (McCann, M., McGinley, J., Ni, K., O'Connor, M., Kavanagh, K., McKee, V., Colleran, J., Devereux, M., Gathergood, N., Barron, N. et al. (2013) A new phenanthroline-oxazine ligand: synthesis, coordination chemistry and atypical DNA binding interaction. Chem. Commun., 49, 2341-2343). Each drug concentration was measured in triplicate, on at least two separate occasions, and the apparent binding constants were calculated using Kapp=Ke×12.6/C50 where Ke=9.5×10^6 M^−1.

[3] = system: poly[d(A-T)2]; assay: Competitive ethidium bromide displacement assay, poly[d(A-T)2]; format: binding; conditions: A-T duplex polymer, EtBr displacement
Protocol: as §1

[4] = system: poly[d(G-C)2]; assay: Competitive ethidium bromide displacement assay, poly[d(G-C)2]; format: binding; conditions: EtBr displacement
Protocol: as §1

Row | Molecule | DNA condensation activity [1] | DNA condensation / aggregation effect [1] | also measured
1 | 2,4,6-Tris-(1,2-ethanediamine)-mesitylene [T2] | highly active | – | –
2 | 2,4,6-Tris-(1,3-propanediamine)-mesitylene [T3] | highly active | – | –
3 | Cc1c(CN)c(C)c(CN)c(C)c1CN [T1, 2,4,6-Tris-(aminomethyl)-mesitylene] | – | mildly condense pUC19 | –
4 | Cc1c(Cn2cc(CN)nn2)c(C)c(Cn2cc(CN)nn2)c(C)c1Cn1cc(CN)nn1 [TC1, Tri-Click propargylamine] | – | – | apparent DNA binding constant (Kapp) ([2]; ctDNA, EtBr displacement): ~10^6 M^−1; binding affinity to duplex DNA (summary) ([2]; duplex DNA, conclusion summary over ctDNA and co-polymers): 10^5-10^6 M^−1; apparent DNA binding constant (Kapp) [3]: ~10^6 M^−1; apparent DNA binding constant (Kapp) [4]: ~10^5 M^−1
5 | Cc1c(Cn2cc(-c3cccc(N(C)C)c3)nn2)c(C)c(Cn2cc(-c3cccc(N(C)C)c3)nn2)c(C)c1Cn1cc(-c2cccc(N(C)C)c2)nn1 [TC6, Tri-Click 3-ethynyl-N,N-dimethylaniline] | – | slight aggregation effects | –
6 | Cc1c(Cn2cc(-c3ccc(N(C)C)cc3)nn2)c(C)c(Cn2cc(-c3ccc(N(C)C)cc3)nn2)c(C)c1Cn1cc(-c2ccc(N(C)C)cc2)nn1 [TC7, Tri-Click 4-ethynyl-N,N-dimethylaniline] | – | slight aggregation effects | –
